Results on 13 compounds are retold here after ChEMBL document CHEMBL3779831, “Nitric Oxide Inhibitory Dimeric Sesquiterpenoids from Artemisia rupestris” (J Nat Prod, 2016).

pIC50: −log10 of the molar value.

One series concerns BV-2. In words: Inhibition of LPS-induced nitric oxide production in […] cells after 24 hrs by Griess assay. The format is functional, cell-based. Particulars: Mus musculus, BV-2, 24 h. On the technique in general: Nitrite, measured by Griess reagent, commonly stands in for NO production.
A short description of series [1]: Cytotoxicity against […] cells assessed as cell viability by MTT assay relative to control. The format is cell-based, BV-2. Details: concentration or dose not given beside the values. Particulars: Mus musculus, read-out: Activity.

In the series on BV-2, `C=C(C(=O)O)[C@@H]1CC[C@H](C)C2=C(C1)[C@]1(C)C[C@H]2C[C@@]1(C(=O)O)[C@@H]1CC[C@H](C)[C@@H]2CC(=O)C(C)=C2C1` showed a pIC50 of 4.49. Moreover, the viability in series [1] was determined as 90.7%.
`C=C(C(=O)O)[C@@H]1CC[C@]2(C)[C@@H](C1)C(C)=C[C@H]1[C@@H]2C[C@]1(C(=O)O)[C@@H]1CC[C@H](C)[C@@H]2CC(=O)C(C)=C2C1` had a pIC50 in the series with BV-2 of 4.40. Besides, the viability in series [1] is 91.1%.
The corresponding values for `C=C(C(=O)O)[C@@H]1CC[C@@]2(C)C=C[C@@H]3[C@@](C)(C[C@@]3(C(=O)O)[C@@H]3CC[C@H](C)[C@@H]4CC(=O)C(C)=C4C3)[C@@H]2C1` are 4.56 and 95.7%.
For `C=C(C(=O)O)[C@@H]1CC[C@@]2(C)C[C@@H](OC(=O)C(=C)[C@@H]3CC[C@H](C)[C@@H]4CC(=O)C(C)=C4C3)C[C@@](C)(O)[C@@H]2C1`, in that order: 4.39 and 97.2%.
As for `C=C(C(=O)O)[C@@H]1CC[C@H](C)C2=C(C1)[C@@]1(C)C[C@@H]2[C@](C(=O)O)([C@@H]2CC[C@H](C)[C@@H]3CC(=O)C(C)=C3C2)C1`, the pIC50 in the series on BV-2 is 4.41. Moreover, in series [1], the viability stood at 90.7%.
`C=C(C(=O)O)[C@@H]1CC[C@@]2(C)[C@@H](OC(=O)C(=C)[C@@H]3CC[C@H](C)[C@@H]4CC(=O)C(C)=C4C3)C=C(C(C)=O)[C@@]2(O)C1`: the pIC50 in the series with BV-2 is 4.52. Also, the viability in series [1] came to 95.4%.
Compound `C=C(C(=O)O)[C@@H]1CC[C@H](C)C23C[C@]4(C(=O)O[C@]56C[C@H]4CC[C@H](C)[C@@H]5CC[C@]6(C)O)[C@@H](C(C)=C2C1)[C@@H]3O` had a pIC50 in the series on BV-2 of 4.14. In addition, the viability in series [1] is 91.8%.
On to `C=C(C(=O)O)[C@@H]1CC[C@H](C)C2=C[C@@H]3[C@@]4(CC2(C1)[C@@]3(C)O)C(=O)O[C@]12C[C@H]4CC[C@H](C)[C@@H]1CC[C@]2(C)O`, for which the pIC50 with BV-2 is 4.36. The viability in series [1] was 77.3%.
For `C=C(C(=O)O)[C@@H]1CC[C@H](C)C2=C(C1)[C@]1(C)C[C@H]2C[C@@]1(C(=O)O)[C@@H]1CC[C@H](C)[C@@H]2CC(=O)C(C)=C2[C@H]1O`, in that order: 4.64 and 91.1%.
`C=C(C(=O)O)[C@@H]1CC[C@]2(C)C(=C(C)[C@@H](O)[C@H]3[C@@H]2C[C@]3(C(=O)O)[C@@H]2CC[C@H](C)[C@@H]3CC(=O)C(C)=C3C2)C1`: in the series on BV-2, the pIC50 is 4.53. For the same compound, the viability in series [1] stood at 94.6%.
On to `C=C(C(=O)O)[C@@H]1CC[C@H](C)[C@]23C[C@H](C(C)=C2C1)[C@]1(C3)C(=O)O[C@]23C[C@H]1CC[C@H](C)[C@@H]2CC[C@]3(C)O`, for which the pIC50 with BV-2 is 4.77. In series [1], the viability was 89.1%.
For `C=C(C(=O)O)[C@@H]1CC[C@]2(C)[C@@H](C1)C(C)=C[C@@H](OC(=O)C(=C)[C@@H]1CC[C@H](C)[C@@H]3CC(=O)C(C)=C3C1)[C@@H]2O`, in that order: 4.48 and 96.7%.
For `O=c1c(O)c(-c2ccc(O)c(O)c2)oc2cc(O)cc(O)c12` [QUERCETIN], in that order: 5.06 and 99.5%.

For orientation: pIC50 means the negative decadic logarithm of the IC50, by convention in mol/L.
